The values that follow come from article PMC2234460 (The Journal of General Physiology, 2002).

For this assay, the target named is Shaker K+ channel (Shaker B) (Drosophila melanogaster, UniProt P08510, DEL6-46/F425G/K253C/T449F). Kind of assay: two-electrode voltage clamp in Xenopus oocytes. The assay is classed as cell-based. Background: Two-electrode voltage clamp is typically applied to oocytes expressing channels or transporters.

The Kd is a measure of binding affinity in units of concentration. `CC[N+](CC)(CC)CC` [TEA]: the Kd was 200 µM.
